Measurements as given in PubChem BioAssay (NCI).
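Compound exposure: 48 hours, 5 concentrations, 96-well plates. TGI: total growth inhibition.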

Assays:
Assay in all cases: NCI-60 cell line screen, 48 h
[1] = tested on: PC-3 prostate
[2] = tested on: MALME-3M melanoma
[3] = tested on: COLO 205 colon
[4] = tested on: HS 578T breast
[5] = tested on: NCI-H460 lung
[6] = tested on: SW-620 colon
[7] = tested on: OVCAR-3 ovarian
[8] = tested on: SNB-19 CNS
[9] = tested on: UACC-257 melanoma
[10] = tested on: LOX IMVI melanoma
[11] = tested on: DU-145 prostate
[12] = tested on: A549 NSCLC
[13] = tested on: SNB-75 CNS
[14] = tested on: ACHN renal
[15] = tested on: SK-OV-3 ovarian
[16] = tested on: NCI/ADR-RES ovarian
[17] = tested on: HCC-2998 colon
[18] = tested on: HCT-116 colon
[19] = tested on: HCT-15 colon
[20] = tested on: A498 renal
[21] = tested on: HL-60(TB) leukemia
[22] = tested on: OVCAR-5 ovarian
[23] = tested on: K-562 leukemia
[24] = tested on: KM12 colon
[25] = tested on: UACC-62 melanoma
[26] = tested on: OVCAR-8 ovarian
[27] = tested on: HOP-92 NSCLC
[28] = tested on: BT-549 breast
[29] = tested on: EKVX NSCLC
[30] = tested on: RPMI-8226 leukemia
[31] = tested on: MOLT-4 leukemia
[32] = tested on: NCI-H23 lung
[33] = tested on: NCI-H226 lung
[34] = tested on: SK-MEL-2 melanoma
[35] = tested on: 786-0 renal
[36] = tested on: HT29 colon
[37] = tested on: NCI-H522 lung
[38] = tested on: TK-10 renal
[39] = tested on: OVCAR-4 ovarian
[40] = tested on: HOP-62 NSCLC
[41] = tested on: CCRF-CEM leukemia
[42] = tested on: SF-295 CNS
[43] = tested on: UO-31 renal
[44] = tested on: MCF7 breast
[45] = tested on: RXF 393 renal
[46] = tested on: SK-MEL-28 melanoma
[47] = tested on: U251 CNS
[48] = tested on: MDA-MB-435
[49] = tested on: SK-MEL-5 melanoma
[50] = tested on: MDA-MB-231 breast
[51] = tested on: MDA-N
[52] = tested on: M14 melanoma
[53] = tested on: SF-268 CNS
[54] = tested on: IGROV1 ovarian
[55] = tested on: CAKI-1 renal
[56] = tested on: SF-539 CNS
[57] = tested on: SR leukemia
[58] = tested on: SN12C renal

## COc1ccc(-c2csc(-n3c(-c4ccccc4)nc4c(Br)cc(Br)cc4c3=O)n2)cc1
[1]
  TGI: > 100 µM
[2]
  TGI: 59.2 µM
[3]
  TGI: > 100 µM
[4]
  TGI: > 100 µM
[5]
  TGI: > 100 µM
[6]
  TGI: > 100 µM
[7]
  TGI: > 100 µM
[8]
  TGI: > 100 µM
[9]
  TGI: > 100 µM
[10]
  TGI: > 100 µM
[11]
  TGI: > 100 µM
[12]
  TGI: > 100 µM
[13]
  TGI: > 100 µM
[14]
  TGI: > 100 µM
[15]
  TGI: > 100 µM
[16]
  TGI: 85.5 µM
[17]
  TGI: > 100 µM
[18]
  TGI: 77.1 µM
[19]
  TGI: > 100 µM
[20]
  TGI: 65.9 µM
[21]
  TGI: 49 µM
[22]
  TGI: > 100 µM
[23]
  TGI: 58.7 µM
[24]
  TGI: > 100 µM
[25]
  TGI: > 100 µM
[26]
  TGI: > 100 µM
[27]
  TGI: 46.7 µM
[28]
  TGI: 88.8 µM
[29]
  TGI: 35.1 µM
[30]
  TGI: 31 µM
[31]
  TGI: > 100 µM
[32]
  TGI: 69.4 µM
[33]
  TGI: 90.7 µM
[34]
  TGI: > 100 µM
[35]
  TGI: 54.4 µM
[36]
  TGI: > 100 µM
[37]
  TGI: > 100 µM
[38]
  TGI: > 100 µM
[39]
  TGI: > 100 µM
[40]
  TGI: > 100 µM
[41]
  TGI: 43.6 µM
[42]
  TGI: > 100 µM
[43]
  TGI: 68.2 µM
[44]
  TGI: > 100 µM
[45]
  TGI: 76.4 µM
[46]
  TGI: 57.8 µM
[47]
  TGI: > 100 µM
[48]
  TGI: 75.4 µM
[49]
  TGI: 36.9 µM
[50]
  TGI: > 100 µM
[51]
  TGI: 67.7 µM
[52]
  TGI: 96.4 µM
[53]
  TGI: 67.1 µM
[54]
  TGI: > 100 µM
[55]
  TGI: > 100 µM

## O=C1c2ccccc2-c2nc(-c3ccncc3)cc3c2c1nc1ccccc13
[1]
  TGI: > 100 µM
[2]
  TGI: 22.4 µM
[3]
  TGI: 62.3 µM
[5]
  TGI: 90.9 µM
[6]
  TGI: > 100 µM
[56]
  TGI: > 100 µM
[7]
  TGI: 12.8 µM
[57]
  TGI: 44.8 µM
[8]
  TGI: > 100 µM
[9]
  TGI: 47.3 µM
[10]
  TGI: > 100 µM
[11]
  TGI: 32.3 µM
[12]
  TGI: 40.2 µM
[13]
  TGI: > 100 µM
[14]
  TGI: > 100 µM
[15]
  TGI: > 100 µM
[16]
  TGI: > 100 µM
[17]
  TGI: 42.9 µM
[18]
  TGI: > 100 µM
[19]
  TGI: > 100 µM
[21]
  TGI: 34.5 µM
[22]
  TGI: > 100 µM
[23]
  TGI: > 100 µM
[24]
  TGI: 47.7 µM
[25]
  TGI: 26.2 µM
[26]
  TGI: > 100 µM
[27]
  TGI: > 100 µM
[28]
  TGI: > 100 µM
[29]
  TGI: > 100 µM
[30]
  TGI: > 100 µM
[31]
  TGI: 44.4 µM
[32]
  TGI: 41.3 µM
[33]
  TGI: > 100 µM
[58]
  TGI: > 100 µM
[34]
  TGI: 26.3 µM
[35]
  TGI: > 100 µM
[36]
  TGI: > 100 µM
[37]
  TGI: 30.7 µM
[38]
  TGI: > 100 µM
[39]
  TGI: > 100 µM
[40]
  TGI: 25.3 µM
[41]
  TGI: > 100 µM
[42]
  TGI: 29.5 µM
[43]
  TGI: > 100 µM
[44]
  TGI: > 100 µM
[46]
  TGI: > 100 µM
[47]
  TGI: 33.2 µM
[48]
  TGI: 29.5 µM
[50]
  TGI: > 100 µM
[51]
  TGI: 41.9 µM
[52]
  TGI: 17 µM
[54]
  TGI: 52.8 µM
[55]
  TGI: > 100 µM

## Cc1ccc(NC(=O)/C(CC2N=c3c(ccc4c(O)c5ccccc5c(O)c34)=NC2O)=N/NC(C)(C)C)cc1 (stereo not given)
[1]
  TGI: 78.1 µM
[3]
  TGI: > 100 µM
[4]
  TGI: 54.8 µM
[5]
  TGI: 26.4 µM
[6]
  TGI: 70.2 µM
[56]
  TGI: 25.9 µM
[7]
  TGI: 51.7 µM
[8]
  TGI: > 100 µM
[9]
  TGI: > 100 µM
[10]
  TGI: 25.3 µM
[11]
  TGI: 39.5 µM
[12]
  TGI: > 100 µM
[13]
  TGI: 91.1 µM
[14]
  TGI: 38.6 µM
[15]
  TGI: 33.6 µM
[16]
  TGI: 20.2 µM
[17]
  TGI: 78.5 µM
[18]
  TGI: 29.6 µM
[19]
  TGI: 44.5 µM
[21]
  TGI: 28.1 µM
[22]
  TGI: > 100 µM
[24]
  TGI: > 100 µM
[25]
  TGI: 45.8 µM
[26]
  TGI: 21.9 µM
[27]
  TGI: 56.5 µM
[28]
  TGI: > 100 µM
[29]
  TGI: > 100 µM
[31]
  TGI: 22.6 µM
[32]
  TGI: 83.9 µM
[58]
  TGI: 44.8 µM
[34]
  TGI: 81.9 µM
[35]
  TGI: 17.5 µM
[36]
  TGI: 43 µM
[37]
  TGI: 97.2 µM
[38]
  TGI: 39.6 µM
[39]
  TGI: 45.1 µM
[40]
  TGI: 43.9 µM
[41]
  TGI: 7.26 µM
[42]
  TGI: > 100 µM
[43]
  TGI: 17.5 µM
[44]
  TGI: > 100 µM
[45]
  TGI: 44.2 µM
[46]
  TGI: 39.3 µM
[47]
  TGI: 63.4 µM
[48]
  TGI: > 100 µM
[49]
  TGI: 24.2 µM
[50]
  TGI: 18.8 µM
[51]
  TGI: > 100 µM
[52]
  TGI: 73.6 µM
[53]
  TGI: 59 µM
[54]
  TGI: 83.5 µM
[55]
  TGI: 25.6 µM
